The results in this text go back to ChEMBL document CHEMBL1201862, “PubChem BioAssay data set” (2004).

Holding throughout (experiment): growth of human tumour cells (NCI), 48 h
The test system of experiment [1] is UACC-257.
In experiment [2] the test system is MDA-N.
The test system of experiment [3] is CCRF-CEM.
Experiment [4] deals with OVCAR-4.
Experiment [5] deals with A498.
The test system of experiment [6] is SK-MEL-28.
Experiment [7] relates to COLO 205.
The test system of experiment [8] is SF-295.
Experiment [9] concerns NCI/ADR-RES.
Experiment [10] has as its system HCT-116.
Experiment [11] deals with OVCAR-8.
The subject of experiment [12] is EKVX.
The subject of experiment [13] is Malme-3M.
For experiment [14], the system named is MDA-MB-231.
The test system of experiment [15] is BT-549.
Experiment [16] concerns KM12.
The subject of experiment [17] is A549.
Experiment [18] concerns SR.
The subject of experiment [19] is 786-0.
The subject of experiment [20] is LOX IMVI.

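Where inhibition never reached the appropriate level, the endpoint shown equals the highest concentration tested. Otherwise, values were interpolated linearly from a five-concentration, 48-hour dose response in 96-well plates. The concentration for 50% growth inhibition is given as GI50.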 Calls of active or inactive are those of the source. Rule as the data show it: active = GI50 up to about 1.1 µM and inactive = higher.

`CCOC(=O)c1c(C)n(Cc2ccc(Cl)cc2Cl)c2c1cc(O)c1[nH]c3c(c12)CCCC3`: the GI50 in experiment [1] was 19.3 µM (inactive); in experiment [2], 21.2 µM (inactive); in experiment [3], 16.8 µM (inactive); in experiment [4], 17.1 µM (inactive); in [5], 19.5 µM (inactive); in experiment [6] it was 22.1 µM (inactive). The GI50 in experiment [7] was 37.1 µM (inactive); in experiment [8] it was 29.3 µM (inactive); in [9], 18.8 µM (inactive); in experiment [10], 40.7 µM (inactive); in [11], 11.4 µM (inactive); in [12] it was 34.6 µM (inactive). Also, the GI50 is 20.6 µM (inactive) in experiment [13]; 34.2 µM (inactive) in experiment [14]; 18.9 µM (inactive) in experiment [15]; 22.6 µM (inactive) in experiment [16]; 52 µM (inactive) in experiment [17]; 0.136 µM (active) in [18]. The results for the GI50 in experiment [19] and in experiment [20] were 30.1 µM (inactive) and 33.5 µM (inactive), respectively.
Turning to `CC(=O)Oc1cccc2c(/C=N/NC(N)=S)ncc(C)c12`, the GI50 in experiment [1] is 5.51 µM (inactive); in experiment [2], 3.59 µM (inactive); in experiment [3], 0.422 µM (active); in experiment [4], 7.41 µM (inactive); in experiment [5] it was 7.55 µM (inactive); in [6], 13.2 µM (inactive). In addition, the GI50 in experiment [7] is 3.4 µM (inactive); in experiment [8] it was 2.47 µM (inactive); in [9], 1.01 µM (active); in experiment [10], 1.96 µM (inactive); in [11], 0.463 µM (active); in experiment [12], 4.72 µM (inactive). Moreover, the GI50 was 1.26 µM (inactive) in experiment [13]; 2.58 µM (inactive) in [14]; 1.28 µM (inactive) in experiment [15]; 0.895 µM (active) in experiment [16]; 3.81 µM (inactive) in [17]; 0.331 µM (active) in [18]. The GI50 was 0.322 µM (active) in [19] and 0.596 µM (active) in experiment [20].
With `C/C(=N\NC(=N)N)C(CN(C)C)C(c1ccccc1)c1c(O)c2ccccc2oc1=O` (configuration not stated), the GI50 in experiment [1], in experiment [2], in experiment [3], in experiment [4], in [5] and in experiment [6] was > 100 µM (inactive) in each case. Also, the GI50 in experiment [7], in experiment [8], in experiment [9], in [10], in [11] and in experiment [12] was > 100 µM (inactive) each time. Moreover, the GI50 in [13] is > 100 µM (inactive); in [14] it was > 100 µM (inactive); in [15] it was 72.9 µM (inactive); in experiment [16], > 100 µM (inactive); in [17], > 100 µM (inactive); in [18], > 100 µM (inactive). Moreover, the GI50 in experiment [19] and in [20] was > 100 µM (inactive) throughout.
In the case of `CN1CCc2c(sc3ncn(N)c(=N)c23)C1`, the GI50 in experiment [1] is > 100 µM (inactive); in experiment [2], > 100 µM (inactive); in experiment [3], 36.1 µM (inactive); in experiment [4], > 100 µM (inactive); in [5], > 100 µM (inactive); in experiment [6] it was > 100 µM (inactive). In addition, the GI50 in experiment [8], in [9], in [10], in experiment [11], in experiment [12] and in experiment [13] was > 100 µM (inactive) in each case. In addition, the GI50 in [14] is > 100 µM (inactive); in [15], > 100 µM (inactive); in experiment [16], > 100 µM (inactive); in [17] it was > 100 µM (inactive); in experiment [18], 63.8 µM (inactive); in [19] it was > 100 µM (inactive). Further, in experiment [20], the GI50 was > 100 µM (inactive).
Take `O=C1NC2CCCCC2NC1=C(C(=O)c1ccccc1)C(=O)c1ccccc1` (configuration not stated): the GI50 is 95.7 µM (inactive) in [1]; 70.3 µM (inactive) in [2]; 11 µM (inactive) in experiment [3]; > 100 µM (inactive) in [5]; 78.2 µM (inactive) in experiment [6]; 32.8 µM (inactive) in [7]. Besides, the GI50 was 40.8 µM (inactive) in [8]; 29.2 µM (inactive) in experiment [9]; 40.7 µM (inactive) in experiment [10]; 25.5 µM (inactive) in experiment [11]; 70.6 µM (inactive) in experiment [12]; > 100 µM (inactive) in [13]. Moreover, the GI50 in experiment [14] is 24.3 µM (inactive); in experiment [15], 10.9 µM (inactive); in [16], 42.7 µM (inactive); in [17] it was 34 µM (inactive); in [18] it was 27.2 µM (inactive); in [19], > 100 µM (inactive). Further, in [20], the GI50 is 38.1 µM (inactive).
Consider `COc1ccc(NC(S)=Nc2ccccc2)cc1`, for which the GI50 is 39.4 µM (inactive) in experiment [1]; > 100 µM (inactive) in experiment [2]; > 100 µM (inactive) in [4]; > 100 µM (inactive) in [5]; > 100 µM (inactive) in experiment [6]; > 100 µM (inactive) in experiment [7]. Also, the GI50 in experiment [8] was > 100 µM (inactive); in experiment [9] it was > 100 µM (inactive); in experiment [10], > 100 µM (inactive); in experiment [11], > 100 µM (inactive); in [12], 96.4 µM (inactive); in experiment [13], > 100 µM (inactive). Also, the GI50 in [14], in experiment [15], in experiment [17], in experiment [18], in experiment [19] and in experiment [20] was > 100 µM (inactive) in each case.
`Cc1c(S(=O)(=O)N/C(N)=N/c2ccc(Cl)cc2)sc2ccc(Cl)cc12`: the GI50 was 18.1 µM (inactive) in experiment [1]; 20.1 µM (inactive) in experiment [2]; 22.2 µM (inactive) in experiment [4]; 15.6 µM (inactive) in [5]; 21.4 µM (inactive) in [6]; 17.2 µM (inactive) in experiment [7]. Also, the GI50 in [8] is 20.7 µM (inactive); in experiment [9] it was 19.5 µM (inactive); in experiment [10] it was 15.9 µM (inactive); in [11] it was 19.3 µM (inactive); in experiment [12], 15.9 µM (inactive); in experiment [13] it was 17.1 µM (inactive). The GI50 was 16 µM (inactive) in experiment [14]; 24.4 µM (inactive) in experiment [15]; 28.1 µM (inactive) in experiment [16]; 19.1 µM (inactive) in [17]; 47.3 µM (inactive) in experiment [18]; 17.1 µM (inactive) in experiment [19]. Besides, the GI50 in [20] was 20 µM (inactive).
For `COc1cc2nc(-c3c(F)cccc3F)n(Cc3c(F)cccc3F)c2cc1Cc1c(F)cccc1F`, the GI50 in experiment [2] is > 100 µM (inactive); in experiment [3], > 100 µM (inactive); in [4], 1.84 µM (inactive); in experiment [5] it was 3.62 µM (inactive); in experiment [6], 0.35 µM (active); in experiment [7], > 100 µM (inactive). Also, the GI50 in [8] was > 100 µM (inactive); in experiment [9] it was > 100 µM (inactive); in [10], > 26.7 µM (inactive); in experiment [11], > 100 µM (inactive); in experiment [12], 16.9 µM (inactive); in experiment [13], > 24.8 µM (inactive). Also, the GI50 is 27.7 µM (inactive) in experiment [14]; > 71.8 µM (inactive) in [15]; 3.77 µM (inactive) in [16]; > 47.8 µM (inactive) in experiment [17]; > 20.4 µM (inactive) in experiment [18]; > 100 µM (inactive) in experiment [19]. Moreover, the GI50 in [20] was > 100 µM (inactive).
Turning to `O=C1C(=CNc2ccc([N+](=O)[O-])cc2)C(=O)N(c2ccccc2)C(=O)N1c1ccccc1`, the GI50 in [1], in experiment [2], in [3], in experiment [4], in experiment [5] and in experiment [7] was > 100 µM (inactive) each time. Besides, the GI50 was 66.2 µM (inactive) in experiment [8]; > 100 µM (inactive) in experiment [9]; > 100 µM (inactive) in experiment [10]; > 100 µM (inactive) in experiment [11]; > 100 µM (inactive) in [12]; > 100 µM (inactive) in experiment [13]. The GI50 was > 100 µM (inactive) in experiment [14]; > 100 µM (inactive) in experiment [15]; 36.7 µM (inactive) in experiment [16]; > 100 µM (inactive) in [17]; > 100 µM (inactive) in experiment [18]; > 100 µM (inactive) in [19]. Also, the GI50 in experiment [20] was > 100 µM (inactive).
Turning to `CC1=Nc2nc3ccccc3n2C(C)(C)C1`, the GI50 in experiment [1], in [2], in experiment [3], in experiment [4], in experiment [5] and in [7] was > 100 µM (inactive) throughout. In addition, the GI50 in experiment [8] is > 100 µM (inactive); in [9], > 100 µM (inactive); in experiment [10], > 100 µM (inactive); in [11], > 100 µM (inactive); in experiment [12], > 100 µM (inactive); in experiment [13] it was 4.54 µM (inactive). Further, the GI50 in experiment [14], in [15], in [16], in experiment [17], in experiment [18] and in [19] was > 100 µM (inactive) each time. Further, the GI50 in [20] is > 100 µM (inactive).
